Source: US8163793B2, “Proline derivatives” (Hoffman-La Roche Inc., priority 2009, dated 2012)
Counter-ions that a name gives are not always drawn.

Experiments:
Cat L = Cat L (UniProt P07711); experiment: Cathepsin enzyme inhibition assay (fluorogenic peptide substrate Z-Val-Val-Arg-AMC), Cathepsin L; format: biochemical, human and mouse; details: enzyme 1 nM, substrate 20 μM, pH 6.5; read-out: CatL IC50
Outline: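 Cathepsin L at 1 nM was mixed with compound, then started with 20 μM Z-Val-Val-Arg-AMC in pH 6.5 potassium phosphate with EDTA, Triton X-100 and 5 mM DTT. AMC fluorescence (ex 360/em 465 nm) was followed over 20 min. IC50 is given in μM.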

Cathepsin S = Cathepsin S (UniProt P25774); experiment: Cathepsin enzyme inhibition assay (fluorogenic peptide substrate Z-Val-Val-Arg-AMC), Cathepsin S; format: biochemical, human and mouse; details: enzyme 1 nM, substrate 20 μM, pH 6.5; read-out: CatS IC50
Outline: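 Human or mouse cathepsin S (1 nM) was run in 100 mM potassium phosphate pH 6.5 with 5 mM EDTA, 0.001% Triton X-100 and 5 mM DTT. The rise in AMC fluorescence from cleavage was measured, and IC50 values were calculated by standard methods and expressed in μM.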

SMILES | IC50 (Cat L) [nM] | IC50 (Cathepsin S) [nM]
N#CC1(NC(=O)[C@@H]2C[C@@H](S(=O)(=O)c3ccc(OCC(F)(F)F)cc3Cl)CN2C(=O)C2CC2(F)F)CC1 (stereo partly drawn) [Example 241, (2S,4R)-4-[2-Chloro-4-(2,2,2-trifluoro-ethoxy)-benzenesulfonyl]-1-(2,2-difluoro-cyclopropanecarbonyl)-pyrrolidine-2-carboxylic acid (1-cyano-cyclopropyl)-amide] | 31800 | 0.33
N#CC1(NC(=O)[C@@H]2C[C@@H](S(=O)(=O)c3ccc(N4CCCCC4)cc3Cl)CN2C=O)CC1 [Example 146, (2S,4R)-4-(2-Chloro-4-piperidin-1-yl-benzenesulfonyl)-1-formyl-pyrrolidine-2-carboxylic acid (1-cyano-cyclopropyl)-amide formiate] | 25500 | 6.4
CC(CN1C[C@H](S(=O)(=O)c2ccccc2Cl)C[C@H]1C(=O)NC1(C#N)CC1)C(F)(F)F (stereo partly drawn) [Example 90, (2S,4R)-4-(2-Chloro-benzenesulfonyl)-1-(3,3,3-trifluoro-2-methyl-propyl)-pyrrolidine-2-carboxylic acid (1-cyano-cyclopropyl)-amide] | ≥ 25000 | 84.5
CC(C)(C(=O)N1C[C@H](S(=O)(=O)c2ccc(OCC(F)(F)F)cc2Cl)C[C@H]1C(=O)NC1(C#N)CC1)c1ccc(Cl)cc1 [Example 279, (2S,4R)-1-[2-(4-Chloro-phenyl)-2-methyl-propionyl]-4-[2-chloro-4-(2,2,2-trifluoro-ethoxy)-benzenesulfonyl]-pyrrolidine-2-carboxylic acid (1-cyano-cyclopropyl)-amide] | 1310 | 0.02
Cc1cc(N2C[C@H](S(=O)(=O)c3ccc(F)cc3Cl)C[C@H]2C(=O)NC2(C#N)CC2)n(C2CCC2)n1 [Example 385, (2S,4R)-4-(2-Chloro-4-fluoro-benzenesulfonyl)-1-(2-cyclobutyl-5-methyl-2H-pyrazol-3-yl)-pyrrolidine-2-carboxylic acid (1-cyano-cyclopropyl)-amide] | 6460 | 0.54
Cc1cc(N2C[C@H](S(=O)(=O)c3ccccc3C(F)(F)F)C[C@H]2C(=O)NC2(C#N)CC2)n(CC(F)(F)F)n1 [Example 269, (2S,4R)-1-[5-Methyl-2-(2,2,2-trifluoro-ethyl)-2H-pyrazol-3-yl]-4-(2-trifluoromethyl-benzenesulfonyl)-pyrrolidine-2-carboxylic acid (1-cyano-cyclopropyl)-amide] | 75100 | 1.6
N#CC1(NC(=O)[C@@H]2C[C@H](S(=O)(=O)c3ccccc3C(F)(F)F)CN2)CC1 [Example 159, (2S,4S)-4-(2-Trifluoromethyl-benzenesulfonyl)-pyrrolidine-2-carboxylic acid (1-cyano-cyclopropyl)-amide] | ≥ 25000 | 2610
CC(C)(C)OC(=O)N1C[C@H](S(=O)(=O)c2ccc(-n3cccn3)cc2Cl)C[C@H]1C(=O)NC1(C#N)CC1 [Example 120, (2S,4R)-4-(2-Chloro-4-pyrazol-1-yl-benzenesulfonyl)-2-(1-cyano-cyclopropylcarbamoyl)-pyrrolidine-1-carboxylic acid tert-butyl ester] | ≥ 25000 | 2.8
CC(C)(C)OC(=O)N1C[C@H](S(=O)(=O)c2ccc(OCCN3CCCCC3)cc2Cl)C[C@H]1C(=O)NC1(C#N)CC1 [Example 139, (2S,4R)-4-[2-Chloro-4-(2-piperidin-1-yl-ethoxy)-benzenesulfonyl]-2-(1-cyano-cyclopropylcarbamoyl)-pyrrolidine-1-carboxylic acid tert.-butyl ester] | ≥ 25000 | 7.8
N#CC1(NC(=O)[C@@H]2C[C@@H](S(=O)(=O)c3ccccc3C(F)(F)F)CN2c2ccccc2[N+](=O)[O-])CC1 [Example 166, (2S,4R)-1-(2-Nitro-phenyl)-4-(2-trifluoromethyl-benzenesulfonyl)-pyrrolidine-2-carboxylic Acid (1-cyano-cyclopropyl)-amide] | ≥ 25000 | 0.6
CC(C)(C)OC(=O)N1CCC(N2CC(S(=O)(=O)c3ccccc3C(F)(F)F)CC2C(=O)NC2(C#N)CC2)CC1 (stereo not drawn) [Example 364, 4-[2-(1-Cyano-cyclopropylcarbamoyl)-4-(2-trifluoromethyl-benzenesulfonyl)-pyrrolidin-1-yl]-piperidine-1-carboxylic acid tert-butyl ester] | ≥ 25000 | 295
CCc1ccccc1S(=O)(=O)[C@H]1CN[C@H](C(=O)NC2(C#N)CC2)C1 [Example 11, (2S,4R)-4-(2-Ethyl-benzenesulfonyl)-pyrrolidine-2-carboxylic acid (1-cyano-cyclopropyl)-amide Hydrochloride] | ≥ 25000 | 30
Cc1cc(N2C[C@H](S(=O)(=O)c3ccccc3C(F)(F)F)C[C@@H]2C(=O)NC2(C#N)CC2)n(CCc2ccccc2)n1 [Example 338, (2R,4R)-1-(5-Methyl-2-phenethyl-2H-pyrazol-3-yl)-4-(2-trifluoromethyl-benzenesulfonyl)-pyrrolidine-2-carboxylic acid (1-cyano-cyclopropyl)-amide] | ≥ 25000 | 375
CC1(C(=O)N2C[C@H](S(=O)(=O)c3ccc(OCC(F)(F)F)cc3Cl)C[C@H]2C(=O)NC2(C#N)CC2)CC1 [Example 175, (2S,4R)-4-[2-Chloro-4-(2,2,2-trifluoro-ethoxy)-benzenesulfonyl]-1-(1-methyl-cyclopropanecarbonyl)-pyrrolidine-2-carboxylic acid (1-cyano-cyclopropyl)-amide] | 15900 | 0.49
N#CC1(NC(=O)[C@@H]2C[C@@H](S(=O)(=O)c3ccccc3Cl)CN2C(=O)Cc2ncc(Cl)cn2)CC1 [Example 414, (2S,4R)-4-(2-Chloro-benzenesulfonyl)-1-[2-(5-chloro-pyrimidin-2-yl)-acetyl]-pyrrolidine-2-carboxylic acid (1-cyano-cyclopropyl)-amide] | 5450 | 0.295
CC(C(=O)N1C[C@H](S(=O)(=O)c2ccccc2Cl)C[C@H]1C(=O)NC1(C#N)CC1)c1ccc(Cl)cc1 (stereo partly drawn) [Example 431] | 130 | 0.875
N#CC1(NC(=O)[C@@H]2C[C@@H](S(=O)(=O)c3ccc(Cl)cc3Cl)CN2C(=O)C2(c3ccc(Cl)cc3)CC2)CC1 [Example 223, (2S,4R)-1-[1-(4-Chloro-phenyl)-cyclopropanecarbonyl]-4-(2,4-dichloro-benzenesulfonyl)-pyrrolidine-2-carboxylic acid (1-cyano-cyclopropyl)-amide] | 45 | 0.1
N#CC1(NC(=O)[C@@H]2C[C@@H](S(=O)(=O)c3ccc(N4CCC(F)(F)CC4)cc3Cl)CN2C(=O)C2(C(F)(F)F)CC2)CC1 [Example 157, (2S,4R)-4-[2-Chloro-4-(4,4-difluoro-piperidin-1-yl)-benzenesulfonyl]-1-(1-trifluoromethyl-cyclopropanecarbonyl)-pyrrolidine-2-carboxylic acid (1-cyano-cyclopropyl)-amide] | 4410 | 0.4
CN1CCC(C(=O)N2C[C@H](S(=O)(=O)c3ccccc3Cl)C[C@H]2C(=O)NC2(C#N)CC2)CC1 [Example 82, (2S,4R)-4-(2-Chloro-benzenesulfonyl)-1-(1-methyl-piperidine-4-carbonyl)-pyrrolidine-2-carboxylic acid (1-cyano-cyclopropyl)-amide] | 6800 | 8.7
N#CC1(NC(=O)[C@@H]2C[C@@H](S(=O)(=O)c3ccc(N4CCOCC4)cc3C(F)(F)F)CN2)CC1 [Example 29, (2S,4R)-4-(4-Morpholin-4-yl-2-trifluoromethyl-benzenesulfonyl)-pyrrolidine-2-carboxylic acid (1-cyano-cyclopropyl)-amide hydrochloride] | 39900 | 0.8
Cc1cc(N2C[C@H](S(=O)(=O)c3ccccc3C(F)(F)F)C[C@H]2C(=O)NC2(C#N)CC2)n(C2CCOCC2)n1 [Example 307, (2S,4R)-1-[5-Methyl-2-(tetrahydro-pyran-4-yl)-2H-pyrazol-3-yl]-4-(2-trifluoromethyl-benzenesulfonyl)-pyrrolidine-2-carboxylic acid (1-cyano-cyclopropyl)-amide] | 52100 | 0.205
N#CC1(NC(=O)[C@@H]2C[C@@H](S(=O)(=O)c3ccccc3Cl)CN2CCc2ccccc2)CC1 [Example 87, (2S,4R)-4-(2-Chloro-benzenesulfonyl)-1-phenethyl-pyrrolidine-2-carboxylic acid (1-cyano-cyclopropyl)-amide] | 4720 | 37.5
CC(C)(C)OC(=O)N1C[C@H](S(=O)(=O)c2ccc(N3CCCCC3)cc2Cl)C[C@H]1C(=O)NC1(C#N)CC1 [Example 121, (2S,4R)-4-(2-Chloro-4-piperidin-1-yl-benzenesulfonyl)-2-(1-cyano-cyclopropylcarbamoyl)-pyrrolidine-1-carboxylic acid tert.-butyl ester] | 23700 | 4.1
COCCN1CCN(c2ccc(S(=O)(=O)[C@@H]3C[C@@H](C(=O)NC4(C#N)CC4)N(C(=O)C4(C(F)(F)F)CC4)C3)c(Cl)c2)CC1 [Example 297, (2S,4R)-4-{2-Chloro-4-[4-(2-methoxy-ethyl)-piperazin-1-yl]-benzenesulfonyl}-1-(1-trifluoromethyl-cyclopropanecarbonyl)-pyrrolidine-2-carboxylic acid (1-cyano-cyclopropyl)-amide] | 1340 | 0.08
